In patent publication US20240025884A1 (Dong-A ST Co., Ltd., priority 2022, published 2024):

The molecules below were run against GCN2 (Homo sapiens (Human), UniProt Q9P2K8) (assay: GCN2 Biochemical Assay (TR-FRET, GFP-eIF2S1 substrate phosphorylation)). Settings: read-out: IC50 (GCN2 Inhibitory Activity).
Sequence of GCN2 (Q9P2K8 whole entry): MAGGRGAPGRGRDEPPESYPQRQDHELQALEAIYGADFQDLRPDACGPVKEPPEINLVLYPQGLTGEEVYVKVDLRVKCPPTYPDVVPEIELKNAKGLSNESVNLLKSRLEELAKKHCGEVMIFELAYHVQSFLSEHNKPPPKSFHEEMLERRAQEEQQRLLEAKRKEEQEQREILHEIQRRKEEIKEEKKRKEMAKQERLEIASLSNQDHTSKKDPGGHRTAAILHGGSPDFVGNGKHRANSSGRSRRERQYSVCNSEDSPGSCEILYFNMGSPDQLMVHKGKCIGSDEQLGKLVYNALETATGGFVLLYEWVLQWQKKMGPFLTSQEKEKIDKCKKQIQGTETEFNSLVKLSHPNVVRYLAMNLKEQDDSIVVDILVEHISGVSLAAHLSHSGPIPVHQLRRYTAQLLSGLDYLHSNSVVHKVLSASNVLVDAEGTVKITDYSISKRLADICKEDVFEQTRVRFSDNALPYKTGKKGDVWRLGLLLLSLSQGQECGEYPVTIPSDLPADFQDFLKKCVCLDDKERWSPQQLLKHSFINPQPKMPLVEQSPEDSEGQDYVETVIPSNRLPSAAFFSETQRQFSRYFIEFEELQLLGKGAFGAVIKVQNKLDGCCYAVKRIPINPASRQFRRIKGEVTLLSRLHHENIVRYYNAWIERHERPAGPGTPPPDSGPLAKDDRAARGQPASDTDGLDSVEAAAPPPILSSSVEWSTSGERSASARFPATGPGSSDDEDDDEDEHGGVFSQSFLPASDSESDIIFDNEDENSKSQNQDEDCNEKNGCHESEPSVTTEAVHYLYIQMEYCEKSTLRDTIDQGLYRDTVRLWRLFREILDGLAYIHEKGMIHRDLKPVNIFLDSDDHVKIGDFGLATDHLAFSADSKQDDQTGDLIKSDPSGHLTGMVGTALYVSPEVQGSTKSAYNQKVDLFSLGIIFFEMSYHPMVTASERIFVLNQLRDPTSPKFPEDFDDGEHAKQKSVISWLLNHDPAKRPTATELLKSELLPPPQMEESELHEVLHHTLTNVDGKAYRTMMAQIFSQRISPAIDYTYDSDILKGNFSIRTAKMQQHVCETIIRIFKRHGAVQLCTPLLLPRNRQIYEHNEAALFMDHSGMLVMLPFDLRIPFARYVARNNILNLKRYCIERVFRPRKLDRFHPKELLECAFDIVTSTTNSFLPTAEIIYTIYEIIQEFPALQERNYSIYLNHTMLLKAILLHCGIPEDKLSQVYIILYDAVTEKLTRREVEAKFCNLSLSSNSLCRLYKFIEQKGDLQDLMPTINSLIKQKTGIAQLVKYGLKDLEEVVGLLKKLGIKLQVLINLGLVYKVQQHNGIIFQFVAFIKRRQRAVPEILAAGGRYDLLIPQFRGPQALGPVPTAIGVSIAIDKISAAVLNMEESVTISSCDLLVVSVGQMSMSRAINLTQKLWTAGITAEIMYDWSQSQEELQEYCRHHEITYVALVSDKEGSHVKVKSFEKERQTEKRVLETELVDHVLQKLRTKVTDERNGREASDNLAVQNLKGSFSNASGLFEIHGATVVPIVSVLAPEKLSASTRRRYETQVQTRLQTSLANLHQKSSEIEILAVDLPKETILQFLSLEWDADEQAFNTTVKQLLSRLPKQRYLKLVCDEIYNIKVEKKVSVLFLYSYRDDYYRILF
How it was run: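 TR-FRET readout (Ex 340, Em 490/520 nm) after 2–3 h with Tb-labelled phospho-eIF2S1 antibody in stop mix, following a 70 min room-temperature kinase step. Reaction: in-house GCN2, GFP-eIF2S1, ATP, tRNA in Tris pH 7.5 (2× stocks 1.6 nM, 50 nM, 0.2 mM); compounds tested at 10 concentrations, with a phospho-substrate artifact counter-plate.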
Cc1cnc(Nc2cc(C)n(C)n2)nc1-c1c[nH]c2c(N3Cc4c(cccc4C4=CCCCC4)C3=O)cccc12 [Example 391, 4-(cyclohex-1-en-1-yl)-2-(3-(2-((1,5-dimethyl-1H-pyrazol-3-yl)amino)-5-methylpyrimidin-4-yl)-1H-indol-7-yl)isoindolin-t-one] gave an IC50 of 0.01 to 0.1 µM.
With Cc1cnc(Nc2cc(C)n(C)n2)nc1-c1c[nH]c2c(N3Cc4c(cccc4C4=CCOCC4)C3=O)cccc12 [Example 392, 4-(3,6-dihydro-2H-pyran-4-yl)-2-(3-(2-((1,5-dimethyl-1H-pyrazol-3-yl)amino)-5-methylpyrimidin-4-yl)-1H-indol-7-yl)isoindolin-1-one] the IC50 was under 0.01 µM.
Cc1cnc(Nc2cc(C)n(C)n2)nc1-c1c[nH]c2c(N3Cc4c(cccc4-c4ccoc4)C3=O)cccc12 [Example 393, 2-(3-(2-((1,5-dimethyl-1H-pyrazol-3-yl)amino)-5-methylpyrimidin-4-yl)-1H-indol-7-yl)-4-(furan-3-yl)isoindolin-1-one] was tested, and the IC50 was under 0.01 µM.
Work on Cc1cnc(Nc2cc(C)n(C)n2)nc1-c1c[nH]c2c(N3Cc4c(cccc4C4=CCNCC4)C3=O)cccc12 [Example 394, 2-(3-(2-((1,5-dimethyl-1H-pyrazol-3-yl)amino)-5-methylpyrimidin-4-yl)-1H-indol-7-yl)-4-(1,2,3,6-tetrahydropyridin-4-yl)isoindolin-1-one] yielded an IC50 of under 0.01 µM.
Cc1cnc(Nc2cc(C)n(C)n2)nc1-c1c[nH]c2c(N3Cc4c(cccc4-c4ccc(OC(F)(F)F)cc4)C3=O)cccc12 [Example 395, 2-(3-(2-((1,5-dimethyl-1H-pyrazol-3-yl)amino)-5-methylpyrimidin-4-yl)-1H-indol-7-yl)-4-(4-(trifluoromethoxy)phenyl)isoindolin-1-one] was tested, and the IC50 was 0.01 to 0.1 µM.
For Cc1cnc(Nc2cc(C)n(C)n2)nc1-c1c[nH]c2c(N3Cc4c(cccc4-c4ccc(N)cc4)C3=O)cccc12 [Example 396, 4-(4-aminophenyl)-2-(3-(2-((1,5-dimethyl-1H-pyrazol-3-yl)amino)-5-methylpyrimidin-4-yl)-1H-indol-7-yl)isoindolin-1-one], the IC50 was under 0.01 µM.
Cc1cnc(Nc2cc(C)n(C)n2)nc1-c1c[nH]c2c(N3Cc4c(cccc4C4=CCN(C(=O)OC(C)(C)C)CC4)C3=O)cccc12 [Example 397, tert-butyl 4-(2-(3-(2-((1,5-dimethyl-1H-pyrazol-3-yl)amino)-5-methylpyrimidin-4-yl)-1H-indol-7-yl)-1-oxoisoindolin-4-yl)-3,6-dihydropyridine-1(2H)-carboxylat] was tested, and the IC50 was under 0.01 µM.
For Cc1cnc(Nc2cc(C)n(C)n2)nc1-c1c[nH]c2c(N3Cc4c(cccc4-c4ccc(NC(=O)OC(C)(C)C)cc4)C3=O)cccc12 [Example 398, tert-butyl (4-(2-(3-(2-((1,5-dimethyl-1H-pyrazol-3-yl)amino)-5-methylpyrimidin-4-yl)-1H-indol-7-yl)-1-oxoisoindolin-4-yl)phenyl)carbamate], the IC50 was 0.01 to 0.1 µM.
Cc1cnc(Nc2cc(C)n(C)n2)nc1-c1c[nH]c2c(N3Cc4c(cccc4-c4ccnc(N)c4)C3=O)cccc12 [Example 399, 4-(2-aminopyridin-4-yl)-2-(3-(2-((1,5-dimethyl-1H-pyrazol-3-yl)amino)-5-methylpyrimidin-4-yl)-1H-indol-7-yl)isoindolin-1-one] showed an IC50 of under 0.01 µM.
With Cc1cnc(Nc2cc(C)n(C)n2)nc1-c1c[nH]c2c(N3Cc4c(cccc4-c4ccncc4F)C3=O)cccc12 [Example 400, 2-(3-(2-((1,5-dimethyl-1H-pyrazol-3-yl)amino)-5-methylpyrimidin-4-yl)-1H-indol-7-yl)-4-(3-fluoropyridin-4-yl)isoindolin-1-one] the IC50 was under 0.01 µM.
Work on Cc1cnc(Nc2cc(C)n(C)n2)nc1-c1c[nH]c2c(N3Cc4c(cccc4-c4ccc(O)nc4)C3=O)cccc12 [Example 401, 2-(3-(2-((1,5-dimethyl-1H-pyrazol-3-yl)amino)-5-methylpyrimidin-4-yl)-1H-indol-7-yl)-4-(6-hydroxypyridin-3-yl)isoindolin-1-one] yielded an IC50 of under 0.01 µM.
With Cc1cnc(Nc2cc(C)n(C)n2)nc1-c1c[nH]c2c(N3Cc4c(cccc4-c4ccnc(Cl)c4)C3=O)cccc12 [Example 402, 4-(2-chloropyridin-4-yl)-2-(3-(2-((1,5-dimethyl-1H-pyrazol-3-yl)amino)-5-methylpyrimidin-4-yl)-1H-indol-7-yl)isoindolin-1-one] the IC50 was 0.01 to 0.1 µM.
Work on COc1cc(-c2cccc3c2CN(c2cccc4c(-c5nc(Nc6cc(C)n(C)n6)ncc5C)c[nH]c24)C3=O)c(F)cn1 [Example 403, 2-(3-(2-((1,5-dimethyl-1H-pyrazol-3-yl)amino)-5-methylpyrimidin-4-yl)-1H-indol-7-yl)-4-(5-fluoro-2-methoxypyridin-4-yl)isoindolin-1-one] yielded an IC50 of 0.01 to 0.1 µM.
In the case of Cc1cnc(Nc2cc(C)n(C)n2)nc1-c1c[nH]c2c(N3Cc4c(cccc4-c4ccnc(F)c4)C3=O)cccc12 [Example 404, 2-(3-(2-((1,5-dimethyl-1H-pyrazol-3-yl)amino)-5-methylpyrimidin-4-yl)-1H-indol-7-yl)-4-(2-fluoropyridin-4-yl)isoindolin-1-one], the IC50 is reported as under 0.01 µM.
Cc1cnc(Nc2cc(C)n(C)n2)nc1-c1c[nH]c2c(N3Cc4c(cccc4-c4ccc(Cl)nc4)C3=O)cccc12 [Example 405, 4-(6-chloropyridin-3-yl)-2-(3-(2-((1,5-dimethyl-1H-pyrazol-3-yl)amino)-5-methylpyrimidin-4-yl)-1H-indol-7-yl)isoindolin-1-one] showed an IC50 of 0.01 to 0.1 µM.
COc1ccc(-c2cccc3c2CN(c2cccc4c(-c5nc(Nc6cc(C)n(C)n6)ncc5C)c[nH]c24)C3=O)cn1 [Example 406, 2-(3-(2-((1,5-dimethyl-1H-pyrazol-3-yl)amino)-5-methylpyrimidin-4-yl)-1H-indol-7-yl)-4-(6-methoxypyridin-3-yl)isoindolin-1-one] showed an IC50 of 0.01 to 0.1 µM.
Work on Cc1cc(-c2cccc3c2CN(c2cccc4c(-c5nc(Nc6cc(C)n(C)n6)ncc5C)c[nH]c24)C3=O)cnc1F [Example 407, 2-(3-(2-((1,5-dimethyl-1H-pyrazol-3-yl)amino)-5-methylpyrimidin-4-yl)-1H-indol-7-yl)-4-(6-fluoro-5-methylpyridin-3-yl)isoindolin-1-one] yielded an IC50 of 0.01 to 0.1 µM.
For Cc1cnc(Nc2cc(C)n(C)n2)nc1-c1c[nH]c2c(N3Cc4c(cccc4-c4ccnc(N5CCNCC5)c4)C3=O)cccc12 [Example 408, 2-(3-(2-((1,5-dimethyl-1H-pyrazol-3-yl)amino)-5-methylpyrimidin-4-yl)-1H-indol-7-yl)-4-(2-(piperazin-1-yl)pyridin-4-yl)isoindolin-1-one], the IC50 was under 0.01 µM.
Cc1cnc(Nc2cc(C)n(C)n2)nc1-c1c[nH]c2c(N3Cc4c(cccc4-c4ccc(S(=O)(=O)N5CCCC5)cc4)C3=O)cccc12 [Example 409, 2-(3-(2-((1,5-dimethyl-1H-pyrazol-3-yl)amino)-5-methylpyrimidin-4-yl)-1H-indol-7-yl)-4-(4-(pyrrolidin-1-ylsulfonyl)phenyl)isoindolin-1-one] showed an IC50 of 0.01 to 0.1 µM.
Cc1cnc(Nc2cc(C)n(C)n2)nc1-c1c[nH]c2c(N3Cc4c(/C=C/c5cccc(F)c5)cccc4C3=O)cccc12 [Example 410, (E)-2-(3-(2-((1,5-dimethyl-1H-pyrazol-3-yl)amino)-5-methylpyrimidin-4-yl)-1H-indol-7-yl)-4-(3-fluorostyryl)isoindolin-1-one] was tested, and the IC50 was 0.1 to 1 µM.
Cc1cnc(Nc2cc(C)n(C)n2)nc1-c1c[nH]c2c(N3Cc4c(cccc4-c4ccnc5[nH]ccc45)C3=O)cccc12 [Example 411, 2-(3-(2-((1,5-dimethyl-1H-pyrazol-3-yl)amino)-5-methylpyrimidin-4-yl)-1H-indol-7-yl)-4-(1H-pyrrolo[2,3-b]pyridin-4-yl)isoindolin-1-one] was tested, and the IC50 was under 0.01 µM.
Cc1cnc(Nc2cc(C)n(C)n2)nc1-c1c[nH]c2c(N3Cc4c(cccc4-c4ccc(C(=O)N5CCC(=O)CC5)cc4)C3=O)cccc12 [Example 412, 2-(3-(2-((1,5-dimethyl-1H-pyrazol-3-yl)amino)-5-methylpyrimidin-4-yl)-1H-indol-7-yl)-4-(4-(4-oxopiperidine-1-carbonyl)phenyl)isoindolin-1-one] was tested, and the IC50 was under 0.01 µM.
In the case of Cc1cnc(Nc2cc(C)n(C)n2)nc1-c1c[nH]c2c(N3Cc4c(cccc4C4=CCSCC4)C3=O)cccc12 [Example 413, 4-(3,6-dihydro-2H-thiopyran-4-yl)-2-(3-(2-((1,5-dimethyl-1H-pyrazol-3-yl)amino)-5-methylpyrimidin-4-yl)-1H-indol-7-yl)isoindolin-1-one], the IC50 is reported as under 0.01 µM.
Molecule Cc1cnc(Nc2cc(C)n(C)n2)nc1-c1c[nH]c2c(N3Cc4c(cccc4-c4cnc(N(C)C)nc4)C3=O)cccc12 [Example 414, 2-(3-(2-((1,5-dimethyl-1H-pyrazol-3-yl)amino)-5-methylpyrimidin-4-yl)-1H-indol-7-yl)-4-(2-(dimethylamino)pyrimidin-5-yl)isoindolin-1-one] has an IC50 of under 0.01 µM.
Cc1cnc(Nc2cc(C)n(C)n2)nc1-c1c[nH]c2c(N3Cc4c(cccc4-c4cnn(CC5CC5)c4)C3=O)cccc12 [Example 415, 4-(1-(cyclopropylmethyl)-1H-pyrazol-4-yl)-2-(3-(2-((1,5-dimethyl-1H-pyrazol-3-yl)amino)-5-methylpyrimidin-4-yl)-1H-indol-7-yl)isoindolin-1-one] showed an IC50 of under 0.01 µM.
Work on Cc1cnc(Nc2cc(C)n(C)n2)nc1-c1c[nH]c2c(N3Cc4c(cccc4-c4cnn(CCN5CCOCC5)c4)C3=O)cccc12 [Example 416, 2-(3-(2-((1,5-dimethyl-1H-pyrazol-3-yl)amino)-5-methylpyrimidin-4-yl)-1H-indol-7-yl)-4-(1-(2-morpholinoethyl)-1H-pyrazol-4-yl)isoindolin-1-one] yielded an IC50 of under 0.01 µM.
With Cc1cnc(Nc2cc(C)n(C)n2)nc1-c1c[nH]c2c(N3Cc4c(cccc4-c4cncnc4)C3=O)cccc12 [Example 417, 2-(3-(2-((1,5-dimethyl-1H-pyrazol-3-yl)amino)-5-methylpyrimidin-4-yl)-1H-indol-7-yl)-4-(pyrimidin-5-yl)isoindolin-1-one] the IC50 was under 0.01 µM.
